From patent publication US20100298282A1, “Treatment of Ocular Conditions and the Side-Effects of Glucocorticoids” (priority 2006, published 2010)
Read-outs that look alike come from different tables or passages of the source. Marks after values point to notes of the source that are not given here.

Key:
[1] = test system: Intraocular pressure (IOP); test: Intraocular pressure after a single eye drop in New Zealand White rabbits; type: in vivo; details: rabbit; for IOP at 3 hours, Mean (SEM) / IOP at 4 hours, Mean (SEM): 0.3% single eye drop; for decrease in IOP compared to vehicle-treated group: at 3 and 4 hours
Description: Healthy female New Zealand White rabbits were tested in a randomized, blind, controlled study, with 6 animals per treatment group. They were acclimatized for 7 days prior to the start of the study. Intraocular pressure (IOP) was measured in both eyes pre-treatment and at intervals after instillation of a single eye drop of vehicle or test compound into the left eye of each animal, administered from a dropper bottle. The volume of each drop was approximately 60-65 microlitres. The vehicle was a sterile solution of 15% hydroxpropyl-β-cyclodextrin, 5% polyethylene glycol, 0.5% hydroxypropylmethylcellulose in deionised water, adjusted to pH 7 with HCl or NaOH as appropriate. […] IOP was measured using a Mentor Tonopen XL (Lim et al., 2005, Invest Opthalmol Vis Sci 46 2419-23), after topical administration of 0.5% proxymetacaine HCl local anaesthetic. Ten recordings per eye per time point were taken and a mean reading documented.

[2] = biological target: T1, native glucocorticoid receptors (Homo sapiens, UniProt P04150); test: Glucocorticoid reporter gene assay (GRE-luciferase) in SW1353 cells, GR antagonist activity; type: cell-based; details: for IC50: 24 hours, in the presence of 50 nM dexamethasone; for Ki: Ki=IC50/(1+[Dex]/EC50Dex)
T1 construct: cell line that expresses native glucocorticoid receptors; endogenous in cells; host or cells: SW1353 human chondrosarcoma cells, stably transfected only with a GRE-luciferase reporter
T1 sequence (P04150 1-777): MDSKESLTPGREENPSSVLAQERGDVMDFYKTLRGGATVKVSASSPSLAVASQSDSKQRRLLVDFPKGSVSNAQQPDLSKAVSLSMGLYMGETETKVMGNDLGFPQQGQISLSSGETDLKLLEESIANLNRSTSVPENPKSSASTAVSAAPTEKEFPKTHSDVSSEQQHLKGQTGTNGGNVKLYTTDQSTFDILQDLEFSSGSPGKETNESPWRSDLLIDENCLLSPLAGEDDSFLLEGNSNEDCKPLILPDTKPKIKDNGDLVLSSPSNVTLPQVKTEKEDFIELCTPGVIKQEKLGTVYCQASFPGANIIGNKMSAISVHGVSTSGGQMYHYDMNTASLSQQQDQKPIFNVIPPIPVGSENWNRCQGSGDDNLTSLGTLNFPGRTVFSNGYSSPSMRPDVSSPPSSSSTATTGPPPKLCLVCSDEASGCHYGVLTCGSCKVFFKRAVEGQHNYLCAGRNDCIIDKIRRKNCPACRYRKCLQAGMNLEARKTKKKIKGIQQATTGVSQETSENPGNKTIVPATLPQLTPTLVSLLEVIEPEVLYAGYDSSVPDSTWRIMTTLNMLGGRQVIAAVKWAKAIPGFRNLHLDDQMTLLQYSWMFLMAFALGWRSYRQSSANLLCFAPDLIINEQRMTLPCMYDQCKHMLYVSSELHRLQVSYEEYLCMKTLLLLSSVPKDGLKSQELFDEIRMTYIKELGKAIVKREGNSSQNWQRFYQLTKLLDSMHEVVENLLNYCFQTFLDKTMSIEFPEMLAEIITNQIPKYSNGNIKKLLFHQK
Excerpt: Depending on the intended use and route of administration, various criteria may be used to determine a GR antagonist for use in the invention. […] The GR antagonism preferably negates more than 30%, more preferably more than 50%, and most preferably more than 90%, of the GR agonism at sites distant from the site of administration of the corticosteroid, and negates less than 70%, more preferably less than 50%, and most preferably less than 10%, of the GR agonism at the site of intended action of the corticosteroid.
The glucocorticoid reporter gene assay was performed in SW1353 human chondrosarcoma cell line that expresses native glucocorticoid receptors (Morgan et al., supra), stably transfected with a vector containing a glucocorticoid-responsive element (GRE) linked to the firefly luciferase gene. […] Compounds were tested on two separate occasions to determine inter-assay variability.
Ki values were calculated from the equation
Ki=IC50/(1+[Dex]/EC50^Dex)

[3] = biological target: T2, human recombinant receptor (PR) (Homo sapiens, UniProt P06401); test: PR binding, radioligand binding with [3H]-progesterone
T2 sequence (P06401 1-933): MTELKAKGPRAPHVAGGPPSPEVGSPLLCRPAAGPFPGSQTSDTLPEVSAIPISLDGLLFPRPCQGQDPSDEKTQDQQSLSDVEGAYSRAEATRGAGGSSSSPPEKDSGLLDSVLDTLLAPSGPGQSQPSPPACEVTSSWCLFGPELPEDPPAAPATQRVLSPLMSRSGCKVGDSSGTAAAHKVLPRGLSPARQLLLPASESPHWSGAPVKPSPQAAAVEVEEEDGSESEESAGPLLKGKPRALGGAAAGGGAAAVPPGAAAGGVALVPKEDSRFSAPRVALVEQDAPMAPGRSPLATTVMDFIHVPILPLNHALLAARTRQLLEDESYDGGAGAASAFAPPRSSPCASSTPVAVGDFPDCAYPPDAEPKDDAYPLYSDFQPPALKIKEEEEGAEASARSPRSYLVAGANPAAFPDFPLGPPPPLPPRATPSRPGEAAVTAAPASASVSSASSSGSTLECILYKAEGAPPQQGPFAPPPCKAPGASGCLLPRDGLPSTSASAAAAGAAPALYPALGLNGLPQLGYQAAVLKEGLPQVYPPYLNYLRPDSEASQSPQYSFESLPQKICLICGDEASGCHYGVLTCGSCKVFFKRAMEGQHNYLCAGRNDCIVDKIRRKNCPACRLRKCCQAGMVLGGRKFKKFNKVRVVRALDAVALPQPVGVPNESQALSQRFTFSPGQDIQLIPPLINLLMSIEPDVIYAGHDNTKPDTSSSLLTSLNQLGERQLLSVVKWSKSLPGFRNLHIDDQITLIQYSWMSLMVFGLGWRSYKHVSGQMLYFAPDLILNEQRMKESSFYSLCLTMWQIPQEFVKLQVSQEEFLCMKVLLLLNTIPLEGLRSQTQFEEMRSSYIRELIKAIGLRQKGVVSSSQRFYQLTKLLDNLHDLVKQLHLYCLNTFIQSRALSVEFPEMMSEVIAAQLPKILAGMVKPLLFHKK
Description: (§1) The methods are described by Gill et al. and Morgan et al., supra.
PR binding was assessed using the same methods, using the human recombinant receptor and [^3H]-progesterone. IC50 values were determined from six-point concentration/inhibition curves performed in duplicate at semi-log concentrations.

[4] = biological target: T3, human recombinant receptor (GR) (Homo sapiens, UniProt P04150); test: GR binding, glucocorticoid radioligand binding with [3H]-dexamethasone
T3 sequence (P04150 1-777): T1 sequence (P04150 1-777)
Excerpt: as §1

rat skin = details: given subcutaneously or topically to the skin; cited from earlier work
[5] = biological target: GR receptors in the iris-ciliary body (Oryctolagus cuniculus, UniProt P59667); details: rabbit eye; cited from earlier work
Sequence of GR receptors in the iris-ciliary body (P59667 whole entry): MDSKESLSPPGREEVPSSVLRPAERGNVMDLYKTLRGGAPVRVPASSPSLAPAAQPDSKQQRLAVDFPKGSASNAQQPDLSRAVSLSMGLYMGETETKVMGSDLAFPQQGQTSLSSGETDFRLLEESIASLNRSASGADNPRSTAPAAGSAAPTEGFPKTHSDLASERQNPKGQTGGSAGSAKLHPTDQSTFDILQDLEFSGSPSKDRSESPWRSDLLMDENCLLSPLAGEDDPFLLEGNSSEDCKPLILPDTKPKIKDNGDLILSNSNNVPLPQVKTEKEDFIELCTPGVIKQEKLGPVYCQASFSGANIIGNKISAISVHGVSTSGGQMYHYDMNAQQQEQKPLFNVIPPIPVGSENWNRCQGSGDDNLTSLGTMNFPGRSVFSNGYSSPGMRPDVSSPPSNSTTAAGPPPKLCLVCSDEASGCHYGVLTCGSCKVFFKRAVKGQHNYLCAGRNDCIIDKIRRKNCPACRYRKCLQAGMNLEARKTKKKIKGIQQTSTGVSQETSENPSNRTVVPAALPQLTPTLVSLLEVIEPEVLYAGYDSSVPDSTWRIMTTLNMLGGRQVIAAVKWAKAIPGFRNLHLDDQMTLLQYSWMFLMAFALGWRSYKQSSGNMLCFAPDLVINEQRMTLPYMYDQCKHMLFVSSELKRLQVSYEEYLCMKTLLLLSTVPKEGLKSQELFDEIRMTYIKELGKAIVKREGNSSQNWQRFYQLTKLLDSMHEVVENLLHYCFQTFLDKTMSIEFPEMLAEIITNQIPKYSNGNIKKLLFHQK

intraocular pressure = details: rabbit, cited from earlier work
[6] = read-out: GR Antagonist Mean Ki

Row | SMILES | IC50 [2] [nM] | Ki [2, 6] [nM] | IC50 [3] [nM] | Ki [3] [nM] | IC50 [4] [nM] | Ki [4] [nM] | Ki ([2]; GR Antagonist Mean Ki) [nM] | IOP at 3 hours, Mean (SEM) [1] | IOP at 4 hours, Mean (SEM) [1] | decrease in IOP compared to vehicle-treated group [1] | effect on steroid-induced skin atrophy (rat skin) | binding to GR receptors in iris-ciliary body [5] | effect on intraocular pressure, topical (intraocular pressure; 1% suspension eyedrops topically, after 4-13 weeks of treatment) | effect on intraocular pressure, subconjunctival injection (intraocular pressure; 1% suspension injected subconjunctivally)
1 | CC#C[C@]1(O)CC[C@H]2[C@@H]3CCC4=CC(=O)CCC4=C3[C@@H](c3ccc(N(C)C)cc3)C[C@@]21C [RU486, Mifepristone] | – | – | – | – | – | – | – | 11.67 (1.23) mm Hg | 11.83 (1.19) mm Hg | did not induce a statistically significant decrease in IOP | blocked atrophogenic effect of the topical steroid without affecting its anti-inflammatory effect | specifically blocks the binding of the GR agonist triamcinolone | falls in intraocular pressure have been noted | falls in intraocular pressure were reported
2 | COc1cccc2c1-c1ccc(NS(C)(=O)=O)cc1C(c1cccc(C)c1)O2 (stereo not drawn) [Compound A-362947, N-[1-methoxy-6-(3-methylphenyl)-6H-benzo{c}chromen-8-yl]methanesulfonamide] | – | – | 1330 | 531 | 5.64 | 2.82 | 50.4 | – | – | – | – | – | – | –

The next lines start with results.

Row | IC50 [2] [nM] | Ki [2, 6] [nM] | IC50 [3] [nM] | Ki [3] [nM] | IC50 [4] [nM] | Ki [4] [nM] | Ki ([2]; GR Antagonist Mean Ki) [nM] | SMILES | IOP at 3 hours, Mean (SEM) [1] | IOP at 4 hours, Mean (SEM) [1] | decrease in IOP compared to vehicle-treated group [1] | effect on steroid-induced skin atrophy (rat skin) | binding to GR receptors in iris-ciliary body [5] | effect on intraocular pressure, topical (intraocular pressure; 1% suspension eyedrops topically, after 4-13 weeks of treatment) | effect on intraocular pressure, subconjunctival injection (intraocular pressure; 1% suspension injected subconjunctivally)
3 | 80.9 | 12.6 | 10.6 | 4.24 | 1.74 | 0.87 | – | CN(C)c1ccc([C@H]2C[C@@]3(C)[C@@H](CC[C@]3(O)C#CCO)[C@@H]3CCC4=CC(=O)CCC4=C32)cc1 [RU42698] | 11.83 (0.40) * mm Hg | 11.83 (0.31) * mm Hg | induced a significant decrease | – | – | – | –
4 | 17.3 | 2.55 | 4.46 | 1.79 | 1.12 | 0.56 | – | CC#C[C@]1(O)CC[C@H]2[C@@H]3CCC4=CC(=O)CCC4=C3[C@@H](c3ccc(NC)cc3)C[C@@]21C [RU42633] | – | – | – | – | – | – | –
5 | 58.3 | 8.6 | 15.9 | 6.37 | 1.36 | 0.68 | – | CC#C[C@]1(O)CC[C@H]2[C@@H]3CCC4=CC(=O)CCC4=C3[C@@H](c3ccc(N)cc3)C[C@@]21C [RU42848] | 11.67 (0.49) * mm Hg | 11.50 (0.34) * mm Hg | induced a significant decrease in IOP | – | – | – | –
